Measured values from paper PMC5381274 (FEBS letters, 2016).

How the values were obtained:
NCI H929 cells = test: JC1 BH3 profiling, NCI H929; assay type: cell-based; settings: Figure 4A
K562 cells = test: JC1 BH3 profiling, K562; assay type: cell-based; settings: Figure 4B

| Compound | Mitochondrial depolarization in NCI H929 (BH3 profiling) (NCI H929 cells) | Mitochondrial depolarization in K562 (BH3 profiling) (K562 cells) |
| --- | --- | --- |
| Ac-WSSAAQLTAARLKALGDELHQ-NH2 [HRK] | not affected | – |
| CSCC[C@H](NC(=O)[C@H](CCCNC(=N)N)NC(=O)[C@H](CCCNC(=N)N)NC(=O)[C@H](CC(C)C)NC(=O)[C@H](CCC(=O)O)NC(=O)[C@H](CCCNC(=N)N)NC(=O)CNC(=O)[C@H](Cc1ccc(O)cc1)NC(=O)[C@H](CCCNC(=N)N)NC(=O)[C@H](CCC(N)=O)NC(=O)[C@H](C)NC(=O)[C@H](C)NC(=O)[C@H](Cc1c[nH]c2ccccc12)NC(=O)[C@H](CC(C)C)NC(C)=O)C(=O)N[C@@H](CO)C(=O)N[C@@H](CC(=O)O)C(=O)N[C@@H](CCC(=O)O)C(=O)N[C@@H](Cc1ccccc1)C(=O)N[C@@H](CCC(=O)O)C(=O)NCC(=O)N[C@@H](CO)C(=O)N[C@@H](Cc1ccccc1)C(=O)N[C@@H](CCCCN)C(=O)NCC(=O)N[C@@H](CC(C)C)C(N)=O [Bad] | not affected | – |
| CC[C@H](C)[C@H](NC(=O)[C@H](CCC(=O)O)NC(=O)[C@H](CC(=O)O)NC(=O)CNC(=O)[C@H](CC(C)C)NC(=O)[C@H](CCCNC(=N)N)NC(=O)[C@H](CCCNC(=N)N)NC(=O)[C@H](CC(C)C)NC(=O)CNC(=O)[C@H](CCC(N)=O)NC(=O)[C@@H](NC(=O)[C@H](CCSC)NC(=O)[C@H](Cc1c[nH]c2ccccc12)NC(=O)[C@@H](NC(=O)[C@H](CCC(=O)O)NC(=O)[C@@H]1CCCN1C(=O)[C@H](CCCNC(=N)N)NC(C)=O)[C@@H](C)CC)[C@@H](C)O)C(=O)N[C@@H](CC(N)=O)C(=O)N[C@@H](C)C(=O)N[C@@H](Cc1ccc(O)cc1)C(=O)N[C@@H](Cc1ccc(O)cc1)C(=O)N[C@@H](C)C(=O)N[C@@H](CCCNC(=N)N)C(N)=O [MS-1] | mitochondrial depolarization was observed | insensitive |
